From patent US8759011B2, “Assay system for determining binding of hydrophobic drugs” (Nederlandse Organisatie voor …, priority 2009, dated 2014)

Tested on: human plasma
Test: plasma binding by partition extraction in dimethylsiloxane-coated 96-well plates
Assay type: in vitro ADME
Conditions: one plate
Procedure: 96-wells deepwell plates (lot 1450-401 Perkin-Elmer Lifesciences) were coated with dimethylsiloxane by making the solutions A-H here below in n-hexane. The used dimethylsiloxane (Silicone rubber, GE Silicones, Bergen op Zoom, The Netherlands) has a density of 1.06. Solution H contains 9.54 g dimethylsiloxane in 300 ml n-hexane.
From solutions A-H 100 μl is pipetted in row A-H of each plate. Plates were dried to air for minimally 18 hours (overnight).
To each dilution of plasma (solutions 1-12) an identical amount of the compound to be tested is added (about […]/200 μl solution). […] The solutions are incubated with the compound overnight at 4°.
The plasma solutions 1-12 are added to corresponding columns 1-12 of each plate (200 μl/well). Also 200 μl was added to a separate vessel to be able to correct for (plasma concentration dependent) solubilization. The next day the plates are emptied, washed once with aqua bidest and dried. When sufficient dry in all wells 200 μl counting solution (Optiphase Hisafe 2, Perkin Elmer Lifesciences) is added and the plates are covered. After incubation for minimally 4 hours under gently shaking the radioactivity in each plate is determined using liquid scintillation counting with a MicroBeta device (Perkin Elmer).
Additionally a total count was determined for each well. The total count is the count in the polymer coating+the count in the remaining fluid. The latter was determined by isolating 25 μl from solution in each well prior to emptying, and mixing with Optiphase (Perkin Elmer) followed by liquid scintillation counting.
1. For each datapoint for which the total count was determined, the recovery of total radioactivity was determined by comparing with the counts of the reference spiking solution. Cells with a total recovery <75% were excluded from further data analysis.
2. From all rows containing polymer, the a-specific binding, i.e. the corresponding counts from the row without polymer, was substracted.
3. Curve fitting was applied using the following formula for each cell:
Predicted counts in coating=Tc/((1/ffp+1/fp−1)×(fp×Vw)/Kpdms/Vp)), where
The above formula was fitted using ffp and Kpdms target parameters to be optimized using the least squares regression method over all wells that were included in the data analysis, by calculating the squared difference between the measured counts in the coating and the predicted counts in the coating. Results

counts in the polymer coating (plasma 0 ml/ml, coating 0 nl): 2561
counts in the polymer coating (plasma 0 ml/ml, coating 4.1 nl): 3274
counts in the polymer coating (plasma 0 ml/ml, coating 10.2 nl): 4727
counts in the polymer coating (plasma 0 ml/ml, coating 25.6 nl): 6222
counts in the polymer coating (plasma 0 ml/ml, coating 64 nl): 6561
counts in the polymer coating (plasma 0 ml/ml, coating 160 nl): 8997
counts in the polymer coating (plasma 0 ml/ml, coating 400 nl): 9656
counts in the polymer coating (plasma 0 ml/ml, coating 1000 nl): 10194
counts in the polymer coating (plasma 0.0005 ml/ml, coating 0 nl): 408
counts in the polymer coating (plasma 0.0005 ml/ml, coating 4.1 nl): 3323
counts in the polymer coating (plasma 0.0005 ml/ml, coating 10.2 nl): 5936
counts in the polymer coating (plasma 0.0005 ml/ml, coating 25.6 nl): 9146
counts in the polymer coating (plasma 0.0005 ml/ml, coating 64 nl): 14297
counts in the polymer coating (plasma 0.0005 ml/ml, coating 160 nl): 16590
counts in the polymer coating (plasma 0.0005 ml/ml, coating 400 nl): 17305
counts in the polymer coating (plasma 0.0005 ml/ml, coating 1000 nl): 17396
counts in the polymer coating (plasma 0.0008 ml/ml, coating 0 nl): 355
counts in the polymer coating (plasma 0.0008 ml/ml, coating 4.1 nl): 3033
counts in the polymer coating (plasma 0.0008 ml/ml, coating 10.2 nl): 6243
counts in the polymer coating (plasma 0.0008 ml/ml, coating 25.6 nl): 9649
counts in the polymer coating (plasma 0.0008 ml/ml, coating 64 nl): 15214
counts in the polymer coating (plasma 0.0008 ml/ml, coating 160 nl): 17344
counts in the polymer coating (plasma 0.0008 ml/ml, coating 400 nl): 18129
counts in the polymer coating (plasma 0.0008 ml/ml, coating 1000 nl): 18254
counts in the polymer coating (plasma 0.001 ml/ml, coating 0 nl): 368
counts in the polymer coating (plasma 0.001 ml/ml, coating 4.1 nl): 2677
counts in the polymer coating (plasma 0.001 ml/ml, coating 10.2 nl): 6668
counts in the polymer coating (plasma 0.001 ml/ml, coating 25.6 nl): 10037
counts in the polymer coating (plasma 0.001 ml/ml, coating 64 nl): 15293
counts in the polymer coating (plasma 0.001 ml/ml, coating 160 nl): 17749
counts in the polymer coating (plasma 0.001 ml/ml, coating 400 nl): 18063
counts in the polymer coating (plasma 0.001 ml/ml, coating 1000 nl): 18984
counts in the polymer coating (plasma 0.003 ml/ml, coating 0 nl): 250
counts in the polymer coating (plasma 0.003 ml/ml, coating 4.1 nl): 2391
counts in the polymer coating (plasma 0.003 ml/ml, coating 10.2 nl): 6779
counts in the polymer coating (plasma 0.003 ml/ml, coating 25.6 nl): 9818
counts in the polymer coating (plasma 0.003 ml/ml, coating 64 nl): 15161
counts in the polymer coating (plasma 0.003 ml/ml, coating 160 nl): 18112
counts in the polymer coating (plasma 0.003 ml/ml, coating 400 nl): 19067
counts in the polymer coating (plasma 0.003 ml/ml, coating 1000 nl): 19314
counts in the polymer coating (plasma 0.005 ml/ml, coating 0 nl): 266
counts in the polymer coating (plasma 0.005 ml/ml, coating 4.1 nl): 2725
counts in the polymer coating (plasma 0.005 ml/ml, coating 10.2 nl): 7054
counts in the polymer coating (plasma 0.005 ml/ml, coating 25.6 nl): 10234
counts in the polymer coating (plasma 0.005 ml/ml, coating 64 nl): 15908
counts in the polymer coating (plasma 0.005 ml/ml, coating 160 nl): 18628
counts in the polymer coating (plasma 0.005 ml/ml, coating 400 nl): 19174
counts in the polymer coating (plasma 0.005 ml/ml, coating 1000 nl): 19676
counts in the polymer coating (plasma 0.008 ml/ml, coating 0 nl): 262
counts in the polymer coating (plasma 0.008 ml/ml, coating 4.1 nl): 2605
counts in the polymer coating (plasma 0.008 ml/ml, coating 10.2 nl): 5943
counts in the polymer coating (plasma 0.008 ml/ml, coating 25.6 nl): 9899
counts in the polymer coating (plasma 0.008 ml/ml, coating 64 nl): 15892
counts in the polymer coating (plasma 0.008 ml/ml, coating 160 nl): 18582
counts in the polymer coating (plasma 0.008 ml/ml, coating 400 nl): 19405
counts in the polymer coating (plasma 0.008 ml/ml, coating 1000 nl): 19541
counts in the polymer coating (plasma 0.01 ml/ml, coating 0 nl): 260
counts in the polymer coating (plasma 0.01 ml/ml, coating 4.1 nl): 2644
counts in the polymer coating (plasma 0.01 ml/ml, coating 10.2 nl): 6466
counts in the polymer coating (plasma 0.01 ml/ml, coating 25.6 nl): 9247
counts in the polymer coating (plasma 0.01 ml/ml, coating 64 nl): 15112
counts in the polymer coating (plasma 0.01 ml/ml, coating 160 nl): 18647
counts in the polymer coating (plasma 0.01 ml/ml, coating 400 nl): 19137
counts in the polymer coating (plasma 0.01 ml/ml, coating 1000 nl): 19454
counts in the polymer coating (plasma 0.02 ml/ml, coating 0 nl): 208
counts in the polymer coating (plasma 0.02 ml/ml, coating 4.1 nl): 2135
counts in the polymer coating (plasma 0.02 ml/ml, coating 10.2 nl): 5288
counts in the polymer coating (plasma 0.02 ml/ml, coating 25.6 nl): 8673
counts in the polymer coating (plasma 0.02 ml/ml, coating 64 nl): 14665
counts in the polymer coating (plasma 0.02 ml/ml, coating 160 nl): 18017
counts in the polymer coating (plasma 0.02 ml/ml, coating 400 nl): 19188
counts in the polymer coating (plasma 0.02 ml/ml, coating 1000 nl): 19218
counts in the polymer coating (plasma 0.03 ml/ml, coating 0 nl): 195
counts in the polymer coating (plasma 0.03 ml/ml, coating 4.1 nl): 1925
counts in the polymer coating (plasma 0.03 ml/ml, coating 10.2 nl): 4066
counts in the polymer coating (plasma 0.03 ml/ml, coating 25.6 nl): 6969
counts in the polymer coating (plasma 0.03 ml/ml, coating 64 nl): 13475
counts in the polymer coating (plasma 0.03 ml/ml, coating 160 nl): 17384
counts in the polymer coating (plasma 0.03 ml/ml, coating 400 nl): 18707
counts in the polymer coating (plasma 0.03 ml/ml, coating 1000 nl): 19112
counts in the polymer coating (plasma 0.04 ml/ml, coating 0 nl): 156
counts in the polymer coating (plasma 0.04 ml/ml, coating 4.1 nl): 1501
counts in the polymer coating (plasma 0.04 ml/ml, coating 10.2 nl): 3633
counts in the polymer coating (plasma 0.04 ml/ml, coating 25.6 nl): 5932
counts in the polymer coating (plasma 0.04 ml/ml, coating 64 nl): 12160
counts in the polymer coating (plasma 0.04 ml/ml, coating 160 nl): 16322
counts in the polymer coating (plasma 0.04 ml/ml, coating 400 nl): 18174
counts in the polymer coating (plasma 0.04 ml/ml, coating 1000 nl): 18716
counts in the polymer coating (plasma 0.05 ml/ml, coating 0 nl): 124
counts in the polymer coating (plasma 0.05 ml/ml, coating 4.1 nl): 1143
counts in the polymer coating (plasma 0.05 ml/ml, coating 10.2 nl): 2760
counts in the polymer coating (plasma 0.05 ml/ml, coating 25.6 nl): 5080
counts in the polymer coating (plasma 0.05 ml/ml, coating 64 nl): 10938
counts in the polymer coating (plasma 0.05 ml/ml, coating 160 nl): 16100
counts in the polymer coating (plasma 0.05 ml/ml, coating 400 nl): 17730
counts in the polymer coating (plasma 0.05 ml/ml, coating 1000 nl): 18325
Structure (SMILES): CC(C)c1nc(CN(C)C(=O)N[C@H](C(=O)N[C@@H](Cc2ccccc2)C[C@H](O)[C@H](Cc2ccccc2)NC(=O)OCc2cncs2)C(C)C)cs1 [Ritonavir]
